# Reference: publication PMC3326534 (Biochemistry, 2007)
# Where two headings read alike, the source gives them in different places.
# What was measured:
# Assay type in all cases: binding
# PrnB [1] = biological target: PrnB (Pseudomonas fluorescens, UniProt P95481, C21S/C60S/C175S); experiment: crystal structure
# PrnB [2] = biological target: T1, PrnB (Pseudomonas fluorescens, UniProt P95481, C175S/C21S/C60S); experiment: spectrophotometric ligand titration
# PrnB [3] = biological target: T1, PrnB; experiment: spectrophotometric ligand titration; remark: listed apart in the source
# PrnB [4] = biological target: T1, PrnB; experiment: spectrophotometric ligand titration; remark: listed apart in the source
# T1 sequence (P95481 whole entry C175S/C21S/C60S): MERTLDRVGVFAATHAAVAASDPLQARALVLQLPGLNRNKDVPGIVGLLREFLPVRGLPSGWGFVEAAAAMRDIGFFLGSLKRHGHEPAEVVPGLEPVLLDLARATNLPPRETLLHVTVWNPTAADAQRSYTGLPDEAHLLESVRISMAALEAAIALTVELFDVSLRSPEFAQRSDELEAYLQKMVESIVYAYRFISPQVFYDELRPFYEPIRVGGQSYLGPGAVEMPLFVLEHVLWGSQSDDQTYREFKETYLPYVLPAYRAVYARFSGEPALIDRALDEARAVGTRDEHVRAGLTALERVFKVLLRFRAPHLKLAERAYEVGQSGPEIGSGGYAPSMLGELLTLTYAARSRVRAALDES
# PrnB (Pseudomonas fluorescens, UniProt P95481, C21S/C60S/C175S), sequence (P95481 whole entry C21S/C60S/C175S): as the sequence (P95481 whole entry C175S/C21S/C60S) above
structure (smiles),measurement,setting,value
NC(Cc1c[nH]c2c(Cl)cccc12)C(=O)O (racemic) [7-Cl-D-tryptophan],crystal structure (2.0 Å),PrnB [1],"In the 7-Cl-D-tryptophan complex, one of the oxygen atoms of the carboxyl group is bound to the iron"
N[C@@H](Cc1c[nH]c2c(Cl)cccc12)C(=O)O [7-Cl-L-tryptophan],Kd,PrnB [2],4.9 µM
N[C@H](Cc1c[nH]c2ccccc12)C(=O)O [D-tryptophan],Kd,PrnB [3],39 µM
N[C@@H](Cc1c[nH]c2ccccc12)C(=O)O [L-tryptophan],Kd,PrnB [4],60 µM
